Test results reported in ChEMBL document CHEMBL1133788, “Structure--activity relationships of side-chain modified didemnins” (Bioorg Med Chem Lett, 2001).

Key:
Assay type in all cases: functional
[1] = Total Growth inhibitory activity evaluated in NCI-60 tumor cell screen; settings: Homo sapiens
[2] = Growth inhibitory activity evaluated in NCI-60 tumor cell screen; settings: Homo sapiens
[3] = Lethal concentration for inhibitory activity evaluated in NCI-60 tumor cell screen; settings: human

CC[C@H](C)[C@H]1NC(=O)[C@@H](NC(=O)[C@@H](CC(C)C)N(C)C(=O)[C@H]2C=CCN2)[C@@H](C)OC(=O)[C@H](Cc2ccc(OC)cc2)N(C)C(=O)[C@@H]2CCCN2C(=O)[C@H](CC(C)C)NC(=O)[C@@H](C)C(=O)[C@H](C(C)C)OC(=O)C[C@@H]1O
TGI [1]: 39 nM | GI50 [2]: 3 nM | LC50 [3]: 7000 nM

CC[C@H](C)[C@H]1NC(=O)[C@@H](NC(=O)[C@@H](CC(C)C)N(C)C[C@@H]2CCCN2C(=O)[C@@H](C)O)[C@@H](C)OC(=O)[C@H](Cc2ccc(OC)cc2)N(C)C(=O)[C@@H]2CCCN2C(=O)[C@H](CC(C)C)NC(=O)[C@@H](C)C(=O)[C@H](C(C)C)OC(=O)C[C@@H]1O
TGI [1]: 76 nM | GI50 [2]: 4 nM | LC50 [3]: 3000 nM

CC[C@H](C)[C@H]1NC(=O)[C@@H](NC(=O)[C@@H](CC(C)C)N(C)C(=O)[C@@H]2C=CCN2C(=O)[C@@H](C)O)[C@@H](C)OC(=O)[C@H](Cc2ccc(OC)cc2)N(C)C(=O)[C@@H]2CCCN2C(=O)[C@H](CC(C)C)NC(=O)[C@@H](C)C(=O)[C@H](C(C)C)OC(=O)C[C@@H]1O
TGI [1]: 20 nM | GI50 [2]: 2.8 nM | LC50 [3]: 83 nM

CC[C@H](C)[C@H]1NC(=O)[C@@H](NC(=O)[C@@H](CC(C)C)N(C)C(=O)CNC(=O)Cc2cc(=O)oc3cc(N(C)C)ccc23)[C@@H](C)OC(=O)[C@H](Cc2ccc(OC)cc2)N(C)C(=O)[C@@H]2CCCN2C(=O)[C@H](CC(C)C)NC(=O)[C@@H](C)C(=O)[C@H](C(C)C)OC(=O)C[C@@H]1O
TGI [1]: 20.5 nM | GI50 [2]: 11 nM | LC50 [3]: 7200 nM

CC[C@H](C)[C@H]1NC(=O)[C@@H](NC(=O)[C@@H](CC(C)C)N(C)C(=O)C2CCCN2)[C@@H](C)OC(=O)[C@H](Cc2ccc(OC)cc2)N(C)C(=O)[C@@H]2CCCN2C(=O)[C@H](CC(C)C)NC(=O)[C@@H](C)C(=O)[C@H](C(C)C)OC(=O)C[C@@H]1O (stereo not given in full)
TGI [1]: 12 nM | GI50 [2]: 0.62 nM | LC50 [3]: 210 nM
